# Data from patent publication US20240174638A1, “HETEROARYL DERIVATIVES AS APELIN RECEPTOR AGONISTS” (RESEARCH TRIANGLE INSTITUTE, priority 2021, published 2024).
# Experiments:
# [1] = tested on: LAD-ligated male C57BI/6 mice (myocardial infarction); test: Cardiac function after coronary artery (LAD) ligation, echocardiography; type: in vivo, mouse
# Description: Adult male C57BI/6 mice, 3 months old, were purchased from Jackson Laboratories and acclimated for 3 or more days in standard housing. All mice underwent twice daily intra-gastric administration of physiologic saline for 7 days pre-operatively (acclimation period). They also underwent standard B- and M-mode echocardiographic (ECHO) imaging (VisualSonics Vevo 2100) of the left heart under conscious restraint, 1-5 days prior to surgery.
# Under ketamine/xylazine anesthesia, mice were intubated and ventilated, then incised through the left thoracic wall between the 3rd and 4th ribs to expose the heart. For ligation of the left anterior descending coronary artery (LAD), an 8-0 nylon suture was inserted under microscopic view (Wild/Leica operating microscope), placing and tying the ligature at a point 1 mm distal to the point where the artery emerges from the edge of the left atrium. Confirmation was provided by clear blanching of the downstream ventricle wall. Control sham-treated mice underwent needle and 8-0 suture passage under the coronary artery but with suture removal without ligation. The wound was closed with 6-0 suture in two layers (muscle and skin, respectively) and mice were recovered on a warming blanket. They received buprenorphine intraoperatively and twice daily postoperatively for 48 hours, by subcutaneous injection (50 ug/kg body weight).
# A total of 48 mice entered the study. Eight mice underwent sham surgery, and these mice received vehicle treatment after surgery. 40 mice underwent LAD ligation, with 20 in each treatment group. Treatment was by oral gavage (intra-gastric administration) at 10 mL/kg body weight, twice daily (7-9 am and 4-6 pm), starting 1-2 hours after surgery and continuing until study termination. Treatment was either with EXAMPLE 22 at a concentration of 3 mg/mL (30 mg/kg) or vehicle for the test agent.
# Echocardiography was done under brief, conscious restraint using a VisualSonics Vevo 2100 ultrasound machine, pre-operatively and at 2 and 4 weeks postoperatively. Standard B-mode and M-mode ultrasound imaging was captured at each imaging session. Echocardiographic images were analyzed for left ventricular function, measuring the interventricular septal thickness, internal ventricular cavity dimension, and posterior wall thickness at both diastole and systole from M-mode images at the level of the papillary muscles. The left ventricle ejection fraction and fractional shortening were calculated from these values:
# Ejection Fraction (%)=100×[LVIDd^3−LVIDs^3]/LVIDd^3Fractional Shortening (%)=100×[LVIDd−LVIDs]/LVIDd, • where LVID=left ventricle inner diameter (internal ventricular cavity dimension), d=diastole, s=systole
# After the 4-week ECHO imaging, mice were anesthetized and a terminal blood draw was taken from the abdominal aorta into 3.8% citrate (9:1), and the plasma was obtained by centrifugation and frozen. Mice were then euthanized (anesthesia overdose followed by cervical dislocation) and the hearts were weighed and the area of infarction was visually measured with t ruler for cranial-caudal and for lateral axes lengths of the approximately oval infarction zone (ligated hearts only). The hearts, and both kidneys, were then immersion-fixed in neutral-buffered formalin for subsequent histopathological evaluation. Plasma, kidney, and heart specimens were returned to Study Sponsor for further evaluation. The time between the last drug dosing and the blood draw was recorded, for future dose-response evaluation by Study Sponsor.
# Summary statistics by “treatment” were provided for the change from baseline to week 2 and change from baseline to week 4 where baseline was defined as the pre-echos time-point. For each parameter, the mean “treatment” difference between “Example 22” and “Vehicle” was analyzed using a 2-sample t-test. The analysis was conducted using SAS Version 9.4 via PROC TTEST under unequal variances for the “treatments” using the Satterthwaite method. […]
# [2] = tested on: Escherichia coli WP2 uvrA (pKM101)
# [3] = in vitro; conditions: mouse, pH 7.4
# [4] = Ex 22 vs Vehicle, LAD-ligated mice, 30 mg/kg p.o. twice daily
# [5] = LAD-ligated mice, 30 mg/kg p.o. twice daily
smiles,measurement,setting,value
"O=C(O)C[C@H](CCN1CCCC(F)(F)C1)NC(=O)c1cc(-c2ccccc2C(F)(F)F)n(-c2nccs2)n1 [Example 22, (3S)-5-(3,3-difluoropiperidin-1-yl)-3-{[1-(1,3-thiazol-2-yl)-5-[2-(trifluoromethyl)phenyl]-1H-pyrazol-3-yl]formamido}pentanoic acid]",deaths in ligated group,"[1]; 30 mg/kg p.o. twice daily, deaths between 3 and 11 days postoperatively, vehicle 7/20",2/20
same,ejection fraction,[1]; 4 weeks post-treatment,Statistically significant improvement
same,"EF, Change from baseline, Week 2, Difference",[1]; [4],4.81%
same,"EF, Change from baseline, Week 4, Difference",[1]; [4],10.70%
same,"FS, Change from baseline, Week 2, Difference",[1]; [4],4.21%
same,"FS, Change from baseline, Week 4, Difference",[1]; [4],7.17%
same,"Heart Rate, Change from baseline, Week 2, Difference",[1]; [4],11.43
same,"Heart Rate, Change from baseline, Week 4, Difference",[1]; [4],−6.42
same,"IVS d, Change from baseline, Week 2, Difference",[1]; [4],0.40
same,"IVS d, Change from baseline, Week 4, Difference",[1]; [4],0.49
same,"IVS s, Change from baseline, Week 2, Difference",[1]; [4],0.47
same,"IVS s, Change from baseline, Week 4, Difference",[1]; [4],0.56
same,"LV Mass corrected, Change from baseline, Week 2, Difference",[1]; [4],18.64
same,"LV Mass corrected, Change from baseline, Week 4, Difference",[1]; [4],7.38
same,"LV Mass, Change from baseline, Week 2, Difference",[1]; [4],23.30
same,"LV Mass, Change from baseline, Week 4, Difference",[1]; [4],9.23
same,"LV VoI d, Change from baseline, Week 2, Difference",[1]; [4],−5.56
same,"LV VoI d, Change from baseline, Week 4, Difference",[1]; [4],−29.03
same,"LV VoI s, Change from baseline, Week 2, Difference",[1]; [4],−1.67
same,"LV VoI s, Change from baseline, Week 4, Difference",[1]; [4],−22.79
same,"LVID d, Change from baseline, Week 2, Difference",[1]; [4],−0.23
same,"LVID d, Change from baseline, Week 4, Difference",[1]; [4],−0.70
same,"LVID s, Change from baseline 2, Week 2, Difference",[1]; [4],−0.22
same,"LVID s, Change from baseline, Week 4, Difference",[1]; [4],−0.74
same,"LVPW d, Change from baseline, Week 2, Difference",[1]; [4],0.03
same,"LVPW d, Change from baseline, Week 4, Difference",[1]; [4],0.20
same,"LVPW s, Change from baseline, Week 2, Difference",[1]; [4],0.09
same,"LVPW s, Change from baseline, Week 4, Difference",[1]; [4],0.38
same,"Weight, Change from baseline, Week 2, Difference",[1]; [4],0.21
same,"Weight, Change from baseline, Week 4, Difference",[1]; [4],0.26
same,"EF, Change from baseline, Week 2, Mean",[1]; [5],−34.17%
same,"EF, Change from baseline, Week 2, Median",[1]; [5],−36.15%
same,"EF, Change from baseline, Week 4, Mean",[1]; [5],−38.46%
same,"EF, Change from baseline, Week 4, Median",[1]; [5],−37.79%
same,"FS, Change from baseline, Week 2, Mean",[1]; [5],−25.71%
same,"FS, Change from baseline, Week 2, Median",[1]; [5],−27.07%
same,"FS, Change from baseline, Week 4, Mean",[1]; [5],−28.24%
same,"FS, Change from baseline, Week 4, Median",[1]; [5],−28.24%
same,"Heart Rate, Change from baseline, Week 2, Mean",[1]; [5],20.04
same,"Heart Rate, Change from baseline, Week 2, Median",[1]; [5],40.66
same,"Heart Rate, Change from baseline, Week 4, Mean",[1]; [5],4.65
same,"Heart Rate, Change from baseline, Week 4, Median",[1]; [5],11.40
same,"IVS d, Change from baseline, Week 2, Mean",[1]; [5],−0.03
same,"IVS d, Change from baseline, Week 2, Median",[1]; [5],0.02
same,"IVS d, Change from baseline, Week 4, Mean",[1]; [5],0.10
same,"IVS d, Change from baseline, Week 4, Median",[1]; [5],0.12
same,"IVS s, Change from baseline, Week 2, Mean",[1]; [5],−0.17
same,"IVS s, Change from baseline, Week 2, Median",[1]; [5],−0.24
same,"IVS s, Change from baseline, Week 4, Mean",[1]; [5],−0.02
same,"IVS s, Change from baseline, Week 4, Median",[1]; [5],0.11
same,"LV Mass corrected, Change from baseline, Week 2, Mean",[1]; [5],54.81
same,"LV Mass corrected, Change from baseline, Week 2, Median",[1]; [5],63.28
same,"LV Mass corrected, Change from baseline, Week 4, Mean",[1]; [5],66.14
same,"LV Mass corrected, Change from baseline, Week 4, Median",[1]; [5],66.57
same,"LV Mass, Change from baseline, Week 2, Mean",[1]; [5],68.51
same,"LV Mass, Change from baseline, Week 2, Median",[1]; [5],79.11
same,"LV Mass, Change from baseline, Week 4, Mean",[1]; [5],82.67
same,"LV Mass, Change from baseline, Week 4, Median",[1]; [5],83.21
same,"LV VoI d, Change from baseline, Week 2, Mean",[1]; [5],39.76
same,"LV VoI d, Change from baseline, Week 2, Median",[1]; [5],38.79
same,"LV VoI d, Change from baseline, Week 4, Mean",[1]; [5],53.15
same,"LV VoI d, Change from baseline, Week 4, Median",[1]; [5],51.79
same,"LV VoI s, Change from baseline, Week 2, Mean",[1]; [5],33.74
same,"LV VoI s, Change from baseline, Week 2, Median",[1]; [5],33.90
same,"LV VoI s, Change from baseline, Week 4, Mean",[1]; [5],45.96
same,"LV VoI s, Change from baseline, Week 4, Median",[1]; [5],39.02
same,"LVID d, Change from baseline, Week 2, Mean",[1]; [5],1.11
same,"LVID d, Change from baseline, Week 2, Median",[1]; [5],1.09
same,"LVID d, Change from baseline, Week 4, Mean",[1]; [5],1.36
same,"LVID d, Change from baseline, Week 4, Median",[1]; [5],1.45
same,"LVID s, Change from baseline 2, Week 2, Mean",[1]; [5],1.62
same,"LVID s, Change from baseline 2, Week 2, Median",[1]; [5],1.69
same,"LVID s, Change from baseline, Week 4, Mean",[1]; [5],1.93
same,"LVID s, Change from baseline, Week 4, Median",[1]; [5],1.92
same,"LVPW d, Change from baseline, Week 2, Mean",[1]; [5],0.09
same,"LVPW d, Change from baseline, Week 2, Median",[1]; [5],0.13
same,"LVPW d, Change from baseline, Week 4, Mean",[1]; [5],−0.00
same,"LVPW d, Change from baseline, Week 4, Median",[1]; [5],0.00
same,"LVPW s, Change from baseline, Week 2, Mean",[1]; [5],−0.29
same,"LVPW s, Change from baseline, Week 2, Median",[1]; [5],−0.30
same,"LVPW s, Change from baseline, Week 4, Mean",[1]; [5],−0.39
same,"LVPW s, Change from baseline, Week 4, Median",[1]; [5],−0.35
same,"Weight, Change from baseline, Week 2, Mean",[1]; [5],−0.13
same,"Weight, Change from baseline, Week 2, Median",[1]; [5],−0.30
same,"Weight, Change from baseline, Week 4, Mean",[1]; [5],0.89
same,"Weight, Change from baseline, Week 4, Median",[1]; [5],0.70
same,cardiac function after MI,"[1]; compared to vehicle treated animals, 30 mg/kg p.o. twice daily",improved cardiac fraction
same,Cytotoxicity Code,[2],N
same,cytotoxicity to tester strain,[2],No cytotoxicity was observed
same,dose related increase of revertant colonies,[2],No dose related increase
same,increase in mean number of revertant colonies vs negative/solvent control,[2]; Escherichia coli,< 2 fold
same,"recovery at 6 h, 1 μM",[3],92.4%
